Consider two molecules from patent US20210187105A1, “COMBINATION THERAPY OF ANTI-MIF ANTIBODIES AND GLUCOCORTICOIDS” (Baxalta Incorporated, priority 2012, published 2021).

Test [1] relates to immune mediated-nephrotoxic nephritis (NTN) in Wistar Kyoto (WKY) rats. As to the kind of experiment: Animal model for crescentic glomerulonephritis (nephrotoxic nephritis). The format is in vivo, rat. The text has this:
This model is recognized in the art as predictable to show the effects of the invention. It is suitable to show the effects of the combination therapy over the complete range of diseases which can be subsumed under the above definition of “MIF related diseases” particularly, this model is suitable for the following diseases: Lupus nephritis, anti-GBM nephritis, ANCA nephritis, IgA nephropathy. Dexamethasone is recognized in the art as predictive for a respective glucocorticoid in the treatment of a human. […] This model has a rapid onset of disease with macrophage infiltration, fibrin deposition and tissue destruction 12. NTN is induced in male WKY rats by single intravenous injection of 0.1 ml rabbit anti-rat glomerular basement membrane serum (day 0). mAb and Dexamethasone is injected intraperitoneally at time points and dosages described below. 24 hour urine samples are collected using metabolic cages before induction of glomerulonephritis and at various time intervals after induction of nephritis for quantification of proteinuria. Sections of renal tissues are frozen for subsequent analysis by immunohistology. Morphology of renal injury is assessed in haematoxylin/eosin (H&E) and periodic acid-Schiff (PAS) stained renal tissue sections. Macrophage is detected by immunoperoxidase technique and using the monoclonal mouse antibody ED1 (Serotec, U C). The animal model was described in detail (Tam F W K, Smith J, Morel D, Karkar A M, Thompson E M, Cook H T, Pusey C D: Development of scarring and renal failure in a rat model of crescentic glomerulonephritis. Nephrol Dial Transplant 14:1658-1666, 1999).

Test [2] relates to Contact hypersensitivity (CHS) response to 2,4-dinitrofluorobenzene (DNFB) in C57BL/6 mice. Description: Contact hypersensitivity (CHS) response to DNFB, ear swelling. It is filed as in vivo, mouse. The conditions noted are these: topical. The protocol: The Contact hypersensitivity (CHS) response to 2,4-dinitrofluorobenzene (DNFB) was determined using a modification of an earlier model described (see Ludwig, et al., 2010, Am J Pathol 176, 1339-1345). C57BL/6 mice were sensitized by treating the shaved mouse back skin with 75 μl of DNFB (Sigma, St. Louis, Mo.) solution (0.5% in acetone/olive oil, 4/1). […] the right ears of the mice were challenged with 20 μl 0.3% DNFB to cause a local inflammatory response. The vehicle (acetone/olive) oil was applied to the left ears as a control. The swelling response to DNFB, specified as the difference between the right and left ears, was measured 24 h after challenge using a micrometer (Mitutoyo Co., Tokyo, Japan). 8 mice were used per group.

[3] abbreviates: single intraperitoneal injection of 0.25 mg/kg, 4 days after induction, day 8.

Turning to `C[C@@H]1C[C@H]2[C@@H]3CCC4=CC(=O)C=C[C@]4(C)[C@@]3(F)[C@@H](O)C[C@]2(C)[C@@]1(O)C(=O)CO` [Dexamethasone, reference compound], the suboptimal dexamethasone concentration in test [1] (dose finding) stood at 0.025 mg/kg. Besides, in test [1] (setting [3]), the “reduction of crescent counts” value was “approximately 25%” and the “reduction of glomerular macrophage infiltration” value is “approximately 53%”. For the same molecule, the reduction of proteinuria result in test [1] (single intraperitoneal injection of 0.25 mg/kg, 4 days after induction, urine day 7 to day 8) was “approximately 50%”.

Consider `C[C@]12CCC(=O)C=C1CC[C@@H]1[C@@H]2[C@@H](O)C[C@@]2(C)[C@H]1CC[C@]2(O)C(=O)CO` [hydrocortisone], for which, in test [2] (1% in DAC base cream ointment, without antibody), the “anti-inflammatory effects, ear thickness” value was “sub-optimal anti-inflammatory effects”. In test [2] (suboptimal dose 1% in DAC base cream, in combination with 10 mg/kg isotype control antibody), the ear swelling entry is listed as “did not reduce ear swelling”.
